Earlier results on 1 compound are cited in US20260324644A1, “HERBICIDE COMPOSITION AND A METHOD FOR BURNDOWN APPLICATION” (UPL Mauritius Limited, priority 2022, published 2026).

Data set [1] relates to glutamine synthetase (GS). The note with it: role: inhibitor; GS of bacteria and plants; cited from earlier work.
The subject of data set [2] is plants. The settings on record: background statement; cited from earlier work.

For the compound `CP(=O)(O)CC[C@@H](N)C(=O)O` [D-glufosinate], the “inhibition of glutamine synthetase (GS)” value in data set [1] was “not a GS inhibitor”. Also, the herbicidal activity result in data set [2] is recorded as “not herbicidally active”.
